In ChEMBL document CHEMBL4673331 (J Med Chem, 2020):
pIC50: −log10 of the molar value. Values after ≈ are worked out from the molar mass of the structure shown.

Assays:
[1] = target: T1, Mucosa-associated lymphoid tissue lymphoma translocation protein 1 (Homo sapiens, UniProt Q9UDY8); experiment: Allosteric inhibition of MALT1 in human OCI-LY3 cells assessed as reduction in BCL10 cleavage measured after 24 hrs by ELISA; format: cell-based, OCILY3
T1 sequence (Q9UDY8 whole entry): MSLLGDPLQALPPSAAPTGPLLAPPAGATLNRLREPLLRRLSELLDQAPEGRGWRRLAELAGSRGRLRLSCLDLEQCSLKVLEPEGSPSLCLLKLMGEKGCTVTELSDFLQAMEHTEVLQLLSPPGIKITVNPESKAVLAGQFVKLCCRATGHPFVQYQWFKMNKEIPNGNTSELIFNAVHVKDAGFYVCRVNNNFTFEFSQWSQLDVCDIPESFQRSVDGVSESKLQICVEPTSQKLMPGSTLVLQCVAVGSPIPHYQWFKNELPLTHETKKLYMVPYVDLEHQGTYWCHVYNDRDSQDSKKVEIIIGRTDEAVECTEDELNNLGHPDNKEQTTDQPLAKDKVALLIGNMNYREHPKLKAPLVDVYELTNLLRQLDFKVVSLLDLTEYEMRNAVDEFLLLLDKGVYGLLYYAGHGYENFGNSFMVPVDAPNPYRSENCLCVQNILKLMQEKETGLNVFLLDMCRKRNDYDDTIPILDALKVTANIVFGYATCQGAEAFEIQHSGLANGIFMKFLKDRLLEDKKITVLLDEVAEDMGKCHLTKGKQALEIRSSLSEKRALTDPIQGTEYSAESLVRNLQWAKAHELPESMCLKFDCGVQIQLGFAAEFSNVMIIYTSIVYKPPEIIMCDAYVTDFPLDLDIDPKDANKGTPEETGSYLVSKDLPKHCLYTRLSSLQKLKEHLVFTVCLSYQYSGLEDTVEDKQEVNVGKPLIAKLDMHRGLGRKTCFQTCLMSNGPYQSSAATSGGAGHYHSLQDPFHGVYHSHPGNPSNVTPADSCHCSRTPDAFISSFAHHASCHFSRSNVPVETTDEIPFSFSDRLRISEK

[2] = target: T1, Mucosa-associated lymphoid tissue lymphoma translocation protein 1; experiment: Allosteric inhibition of human wild-type […] MALT1 (329 to 824 residues) protease activity using Ac-Leu-Arg-Ser-Arg Rh110-dPro as substrate preincubated for 60 mins followed by substrate addition and measured after 60 mins by fluorescence assay
[3] = Solubility of the compound at pH 6.8; format: physicochemical; conditions: buffer
[4] = target: Voltage-gated inwardly rectifying potassium channel KCNH2 (Homo sapiens, UniProt Q12809); experiment: Inhibition of human ERG
Chain of Voltage-gated inwardly rectifying potassium channel KCNH2 (Q12809 whole entry): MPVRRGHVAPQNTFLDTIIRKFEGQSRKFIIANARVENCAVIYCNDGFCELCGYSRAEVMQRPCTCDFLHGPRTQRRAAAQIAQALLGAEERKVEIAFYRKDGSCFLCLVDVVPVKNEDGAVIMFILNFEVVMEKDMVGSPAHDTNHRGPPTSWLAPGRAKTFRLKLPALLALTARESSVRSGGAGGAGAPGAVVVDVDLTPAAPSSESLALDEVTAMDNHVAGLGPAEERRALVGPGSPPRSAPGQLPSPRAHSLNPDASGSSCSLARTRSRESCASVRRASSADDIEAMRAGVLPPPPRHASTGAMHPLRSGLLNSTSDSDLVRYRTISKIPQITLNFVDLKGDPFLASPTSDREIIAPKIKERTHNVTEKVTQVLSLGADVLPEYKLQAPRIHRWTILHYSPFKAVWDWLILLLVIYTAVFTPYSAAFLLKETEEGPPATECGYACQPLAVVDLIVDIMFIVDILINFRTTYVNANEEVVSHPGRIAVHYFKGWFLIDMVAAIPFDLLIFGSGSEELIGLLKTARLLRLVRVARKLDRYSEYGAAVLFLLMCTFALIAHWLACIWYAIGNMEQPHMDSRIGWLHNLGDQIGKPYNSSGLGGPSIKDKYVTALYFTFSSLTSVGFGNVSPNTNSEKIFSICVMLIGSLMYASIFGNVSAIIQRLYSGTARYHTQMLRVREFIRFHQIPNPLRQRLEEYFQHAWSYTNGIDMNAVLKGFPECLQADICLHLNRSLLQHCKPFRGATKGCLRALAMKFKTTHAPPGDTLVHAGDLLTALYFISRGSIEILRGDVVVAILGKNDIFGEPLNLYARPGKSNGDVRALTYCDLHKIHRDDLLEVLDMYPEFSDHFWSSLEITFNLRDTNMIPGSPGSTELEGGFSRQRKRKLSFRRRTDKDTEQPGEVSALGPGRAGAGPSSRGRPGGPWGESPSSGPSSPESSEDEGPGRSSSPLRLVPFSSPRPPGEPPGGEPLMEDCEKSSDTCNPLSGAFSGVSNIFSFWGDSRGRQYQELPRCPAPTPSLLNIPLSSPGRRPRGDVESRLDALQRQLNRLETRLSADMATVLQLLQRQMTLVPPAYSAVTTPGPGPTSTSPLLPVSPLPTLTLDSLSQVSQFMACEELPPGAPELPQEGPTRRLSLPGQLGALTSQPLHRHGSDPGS

[5] = Solubility of compound at pH 6.8 assessed as extrapolated log of solubility; format: physicochemical; conditions: buffer
[6] = Solubility of compound at pH 6.8; format: physicochemical; conditions: buffer
[7] = Thermodynamic solubility of the compound at pH 6.8; format: physicochemical; conditions: buffer, read-out: Therm_solubility
[8] = Volume of distribution at steady state in Sprague-Dawley rat at 1 mg/kg, iv administered as bolus dose; format: ADME, organism-based; conditions: in vivo, read-out: Vdss
[9] = Protein binding in rat plasma; format: ADME, cell-free; conditions: read-out: PPB (converted)
[10] = Tmax in Sprague-Dawley rat at 1.25 mg/kg, po administered as solution; format: ADME, organism-based; conditions: in vivo
[11] = Lipophilicity, log D of the compound at pH 7.4; format: physicochemical; conditions: buffer
[12] = Oral bioavailability in Sprague-Dawley rat at 1.25 mg/kg administered as solution; format: ADME, organism-based; conditions: in vivo
[13] = Intrinsic clearance in rat liver microsomes; format: ADME, Microsome; conditions: read-out: CLH
[14] = Dose normalized AUC in Sprague-Dawley rat at 1.25 mg/kg, po administered as solution; format: ADME, organism-based; conditions: in vivo
[15] = Dose normalized AUC in Sprague-Dawley rat at 1 mg/kg, iv administered as bolus dose; format: ADME, organism-based; conditions: in vivo
[16] = Dose normalized Cmax in Sprague-Dawley rat at 3 mg/kg, po administered as MCT suspension; format: ADME, organism-based; conditions: in vivo
[17] = Tmax in Sprague-Dawley rat at 3 mg/kg, po administered as MCT suspension; format: ADME, organism-based; conditions: in vivo
[18] = Oral bioavailability in Sprague-Dawley rat at 3 mg/kg administered as MCT suspension; format: ADME, organism-based; conditions: in vivo
[19] = Clearance in male Sprague-Dawley rat at 1 mg/kg, iv administered as bolus dose; format: ADME, organism-based; conditions: in vivo
[20] = Dose normalized Cmax in Sprague-Dawley rat at 1.25 mg/kg, po administered as solution; format: ADME, organism-based; conditions: in vivo
[21] = Dose normalized AUC in Sprague-Dawley rat at 3 mg/kg, po administered as MCT suspension; format: ADME, organism-based; conditions: in vivo
[22] = Terminal half-life in Sprague-Dawley rat at 1 mg/kg, iv administered as bolus dose; format: ADME, organism-based; conditions: in vivo, read-out: beta t1/2 (converted)
[23] = Permeability of compound by PAMPA assay; format: ADME

pIC50 [1]	pIC50 [2]	solubility [3]	Compound	further results
5.90	7.24		COc1ccc(NC(=O)NC2COc3ccc(F)cc3C2)cc1Cl (racemic)	
5.45	7.51		COc1ncc(NC(=O)NC2COc3ccc(Br)cc3C2)cc1Cl (stereo not given)	
6.48	8.22	81 µM (≈ 37.8 µg/mL)	COc1ncc(NC(=O)Nc2cnc3cc(Cl)nn3c2N2[C@@H](C)COC[C@@H]2C)cc1Cl	
	< 4.00		COc1ccc(NC(=O)NC2CCc3ccccc3C2)cc1Cl (racemic)	
5.71	7.59		O=C(Nc1ccc(-n2cncn2)c(Cl)c1)N[C@H]1COc2ccc(Br)cc2C1	
	7.30		COc1ccc(NC(=O)NC2COc3ccc(Br)cc3C2)cc1Cl (racemic)	
	< 4.00		COc1ccc(NC(=O)N[C@@H]2COc3ccccc3C2)cc1Cl	
	7.15	61 µM (≈ 28.9 µg/mL)	COc1ncc(NC(=O)Nc2cnc3ccc(F)cc3c2N(C)C2CCCN(C)C2)cc1Cl (stereo not given)	pIC50 [4]: 5.05
6.29	7.54	< 4 µM	COc1ccc(NC(=O)Nc2cnc3ccc(Br)cc3c2Cl)cc1Cl	
	6.87		COc1ccc(NC(=O)N[C@H]2COc3ccccc3C2)cc1Cl	
6.13	7.77	155 µM (≈ 77 µg/mL)	COc1ncc(NC(=O)Nc2cnc3cc(Br)nn3c2N2CCOC[C@@H]2C)cc1Cl	
5.37	6.84		COc1ccc(NC(=O)NC2CSc3ccc(F)cc3C2)cc1Cl (racemic)	
5.32	6.62	< 4 µM	COc1ccc(NC(=O)Nc2cnc3ccc(Br)cc3c2)cc1Cl	
	7.15	60 µM (≈ 31.7 µg/mL)	C[C@H]1COCCN1c1c(NC(=O)Nc2cnc(OC3CCN(C)CC3)c(Cl)c2)cnc2ccc(F)cc12	
6.55	8.22	8 µM (≈ 3.76 µg/mL)	CC1(C)COCCN1c1c(NC(=O)Nc2ccnc(C(F)(F)F)c2)cnc2cc(Cl)nn12	
6.72	8.70	< 4 µM	COc1ncc(NC(=O)Nc2cnc3ccc(C#N)cc3c2N(C)C2CCOCC2)cc1Cl	
	< 4.00		COc1ccc(CC(=O)NC2COc3ccccc3C2)cc1Cl (stereo not given)	
7.10	8.70	< 4 µM	COc1ncc(NC(=O)Nc2cnc3cc(Cl)nn3c2N2CCOCC2(C)C)cc1Cl	
6.17	8.10	27 µM (≈ 12.6 µg/mL)	COc1ccc(NC(=O)Nc2cnc3ccc(C#N)cc3c2N(C)C2CCOCC2)cc1Cl	log1/S [5]: 7.1; log1/S [6]: 7.1; log1/S0 [6]: 7.1
7.43	8.30	< 4 µM	COc1ncc(NC(=O)Nc2cnc3ccc(C#N)cc3c2N2CCOC[C@@H]2C)cc1Cl	solubility thermodynamic [7]: 0.2 µg/mL (≈ 0.442 µM); Vd [8]: 4.8 L/kg; fraction unbound [9]: 0.025; Tmax [10]: 3 h; logD [11]: 3.8; bioavailability [12]: 42%; microsomal CLint [13]: 3.4 µL/min/mg; AUC/dose [14]: 520 nM·h; AUC/dose [15]: 1240 nM·h; Cmax/dose [16]: 11 nM; Tmax [17]: 8 h; bioavailability [18]: 8%; clearance [19]: 31 mL/min/kg; Cmax/dose [20]: 71 nM; AUC/dose [21]: 103 nM·h; half-life [22]: 2.1 h; log(permeability) [23]: -4.9
5.64	6.61		COc1ccc(NC(=O)NC2COc3ccccc3C2)cc1Cl (racemic)	
6.92	8.22	< 4 µM	COc1ccc(NC(=O)Nc2cnc3ccc(C#N)cc3c2N2CCOC[C@@H]2C)cc1Cl	
5.72	6.82		COc1ccc(NC(=O)NC2COc3ccc(C#N)cc3C2)cc1Cl (racemic)	
	< 4.00		COc1ccc(NC(=O)N(C)C2COc3ccc(Br)cc3C2)cc1Cl (stereo not given)	
	6.00		COc1ccc(NC(=O)CC2COc3ccccc3C2)cc1Cl (stereo not given)	
	< 4.00		COc1ccc(N(C)C(=O)NC2COc3ccc(Br)cc3C2)cc1Cl (stereo not given)	
